Laboratory results: patent EP0136745A2, “Benzoyl urea derivatives having anti-tumor activity” (DUPHAR INTERNATIONAL RESEARCH B.V, priority 1983, dated 1985)

Tested on: B16 melanoma cells
Experiment: Sensitivity of B16 melanoma cells, in vitro cell growth inhibition (Coulter Counter cell count)
Assay type: cell-based
Conditions: Mus musculus, dosage of 500 /ug/ml, aqueous suspension, incubation 20 hours at 37°C, cells counted 48 hours after beginning of incubation, inhibition of cell growth with respect to control
Description: The anti-tumor activity was tested in an in vitro test. In this test the sensitivity of B16 melanoma cells to the new compounds according to the invention was determined.
B16 melanoma cells grow as a "monolayer". The doubling time of said cells in a cell culture is 12-16 hours.
On day O a quantity of 5 x 10^4 B 16 melanoma cells is provided in each cell culture dish.
On day 1 the compounds to be tested are vortexed in the presence of glass-beads. The compound to be tested is then addei to the dishes comprising melanoma cells in the desired quantity. Incubation takes place in a CO2--incubator at 37°C for 20 hours. The incubation is terminated by removing the culture medium with therein the compound to be tested, after which the cells are washed twice and fresh medium is added.
Forty-eight hours after the beginninq of the incubation the quantity of cells in each dish is measured by means of a microcell Coulter Counter. The results thus obtained are expressed by indicating the activity cf the compounds as 1+, 2+, 3+, 4+ or 5+, which has the following meaning: • 1+ : cel growth is inhibited 1- 20% with respect to control. • 2+ : cel growth is inhibited 20- 40% with respect to control. • 3+ : cel growth is inhibited 40- 60% with respect to control. • 4+ : cel growth is inhibited 60- 80% with respect to control. • 5+ : cel growth is inhibited 80-100% with respect to control.
Various compounds according to the invention were tested in the above-described manner in a dosage of 500 /ug/ml in the form of an aqueous suspension.

| Structure (SMILES) | inhibition at 500 µg/mL [%] |
| --- | --- |
| O=C(NC(=O)c1c(Cl)ccc(O)c1Cl)Nc1ccc(Cl)cc1 [Compound 1] | 80 to 100 |
| CC(=O)Oc1ccc(Cl)c(C(=O)NC(=O)Nc2ccc(Cl)cc2)c1Cl [Compound 2] | 60 to 80 |
| O=C(NC(=O)c1c(Cl)ccc(OCc2ccccc2)c1Cl)Nc1ccc(Cl)cc1 [Compound 3] | 40 to 60 |
| O=C(NC(=O)c1c(Cl)ccc(O)c1Cl)Nc1ccc(C(F)(F)F)cc1 [Compound 4] | 80 to 100 |
| CC(=O)Oc1ccc(Cl)c(C(=O)NC(=O)Nc2ccc(C(F)(F)F)cc2)c1Cl [Compound 5] | 80 to 100 |
| O=C(NC(=O)c1c(O)cccc1Cl)Nc1ccc(Cl)cc1 [Compound 6] | 60 to 80 |
| CC(=O)Oc1cccc(Cl)c1C(=O)NC(=O)Nc1ccc(Cl)cc1 [Compound 7] | 80 to 100 |
| CCC(=O)Oc1cccc(Cl)c1C(=O)NC(=O)Nc1ccc(Cl)cc1 [Compound 8] | 60 to 80 |
| O=C(NC(=O)c1cc([N+](=O)[O-])ccc1O)Nc1ccc(Cl)cc1 [Compound 9] | 60 to 80 |
| O=C(NC(=O)c1ccccc1O)Nc1ccc([N+](=O)[O-])cc1Cl [Compound 10] | 60 to 80 |
| O=C(NC(=O)c1c(O)cccc1O)Nc1ccc(Cl)cc1 [Compound 11] | 80 to 100 |
| O=C(NC(=O)c1cc(I)cc(I)c1O)Nc1ccc(Cl)cc1 [Compound 12] | 80 to 100 |
| Cc1cc(Cl)ccc1NC(=O)NC(=O)c1c(O)cccc1O [Compound 13] | 60 to 80 |
| CC(=O)Oc1cccc(Cl)c1C(=O)NC(=O)Nc1ccc(OC(F)(F)C(F)F)cc1 [Compound 14] | 80 to 100 |
| CC(=O)Oc1cccc(Cl)c1C(=O)NC(=O)Nc1ccc(OC2CC(C)CCC2C(C)C)cc1 (stereo not drawn) [Compound 15] | 60 to 80 |
| CC(=O)Oc1cccc(Cl)c1C(=O)NC(=O)Nc1ccc(C(=O)N2CCCCC2)cc1 [Compound 16] | 80 to 100 |
| O=C(NC(=O)c1ccccc1OC(=O)c1ccccc1)Nc1ccc(Cl)cc1 [Compound 17] | 60 to 80 |
| O=C(NC(=O)c1cc(Cl)c(O)c(Cl)c1)Nc1ccc(Cl)cc1 [Compound 18] | 60 to 80 |
| CC(=O)Oc1c(Cl)cc(C(=O)NC(=O)Nc2ccc(Cl)cc2)cc1Cl [Compound 19] | 60 to 80 |

| Structure (SMILES) | inhibition at 500 µg/mL [%] |
| --- | --- |
| O=C(NC(=O)c1cc(Cl)ccc1O)Nc1ccc([N+](=O)[O-])cc1Cl [Compound 20] | 40 to 60 |
| O=C(NC(=O)c1c(Cl)cc(O)cc1Cl)Nc1ccc(Cl)c(Cl)c1 [Compound 21] | 60 to 80 |
| Cc1cc(Cl)ccc1NC(=O)NC(=O)c1c(OCc2ccccc2)cccc1OCc1ccccc1 [Compound 22] | 40 to 60 |
| CC(=O)Oc1cccc(Cl)c1C(=O)NC(=O)Nc1ccc(C(=O)c2ccccc2)cc1 [Compound 23] | 80 to 100 |
| CC(=O)Oc1cc(Cl)ccc1NC(=O)NC(=O)c1c(F)cccc1F [Compound 24] | 80 to 100 |
| CC(=O)Oc1cc(C(F)(F)F)ccc1NC(=O)NC(=O)c1c(F)cccc1F [Compound 25] | 80 to 100 |
| O=C(NC(=O)c1c(F)cccc1F)Nc1ccc(O)c(C(F)(F)F)c1 [Compound 26] | 80 to 100 |
| O=C(NC(=O)c1ccccc1Cl)Nc1ccc(O)c(C(F)(F)F)c1 [Compound 27] | 40 to 60 |
| O=C(NC(=O)c1ccccc1Cl)Nc1ccc(O)cc1OC(F)(F)F [Compound 28] | 80 to 100 |
| CC(=O)Oc1cc(C(F)(F)F)ccc1NC(=O)NC(=O)c1ccccc1Cl [Compound 29] | 40 to 60 |
| CC(=O)Oc1cc(OC(F)(F)F)ccc1NC(=O)NC(=O)c1ccccc1Cl [Compound 30] | 40 to 60 |
| O=C(NC(=O)c1c(F)cccc1F)Nc1ccc(Oc2ccc(Cl)cc2)c(Cl)c1 [Compound 31] | 40 to 60 |
| CNC(=O)Oc1ccccc1NC(=O)NC(=O)c1c(Cl)cccc1Cl [Compound 32] | 60 to 80 |
| O=C(NC(=O)c1c(Cl)cccc1Cl)Nc1cccc(OC(=O)Nc2ccccc2)c1 [Compound 33] | 80 to 100 |
| O=C(NC(=O)c1ccccc1Cl)Nc1ccc(OC(=O)Cc2ccc(Cl)cc2)c(Cl)c1 [Compound 34] | 40 to 60 |
| CCOC(=O)COc1ccc(NC(=O)NC(=O)c2c(F)cccc2F)cc1C(F)(F)F [Compound 35] | 60 to 80 |
| Cc1ccccc1C(=O)NC(=O)Nc1ccc(O)cc1 [Compound 36] | 60 to 80 |
| CC(C)(C)c1cc(NC(=O)NC(=O)c2ccccc2Cl)cc(C(C)(C)C)c1O [Compound 37] | 80 to 100 |
| O=C(NC(=O)c1c(O)cccc1Cl)Nc1ccc(Cl)c(O)c1 [Compound 38] | 60 to 80 |

| Structure (SMILES) | inhibition at 500 µg/mL [%] |
| --- | --- |
| CC(=O)Oc1cc(NC(=O)NC(=O)c2c(Cl)cccc2OC(C)=O)ccc1Cl [Compound 39] | 80 to 100 |
| CC(=O)Oc1cccc(Cl)c1C(=O)NC(=O)Nc1ccc(O)cc1 [Compound 40] | 60 to 80 |
| CC(=O)Oc1cccc(Cl)c1C(=O)NC(=O)Nc1cc(C)ccc1O [Compound 41] | 80 to 100 |
| CC(=O)Oc1cccc(Cl)c1C(=O)NC(=O)Nc1ccc([N+](=O)[O-])cc1O [Compound 42] | 80 to 100 |
| CC(=O)Oc1ccc(C)cc1NC(=O)NC(=O)c1c(Cl)cccc1OC(C)=O [Compound 43] | 80 to 100 |
| CCCCOC(=O)c1ccc(NC(=O)NC(=O)c2c(Cl)cccc2OC(C)=O)cc1O [Compound 44] | 60 to 80 |
| CC(=O)Oc1cccc(Cl)c1C(=O)NC(=O)Nc1cc(Br)cc(Br)c1O [Compound 45, 1-(2-acetoxy-6-chlorobenzoyl)-3-(2-hydroxy-3,5-dibromophenyl)urea] | 80 to 100 |
| CC(=O)Oc1cccc(Cl)c1C(=O)NC(=O)Nc1ccc(O)c(C(C)=O)c1 [Compound 46] | 80 to 100 |
| CC(=O)Oc1ccc(NC(=O)NC(=O)c2cc(C(C)(C)C)c(O)c(C(C)(C)C)c2)cc1 [Compound 47] | 60 to 80 |
| CC(=O)Oc1ccc(C(=O)NC(=O)Nc2ccc(O)cc2)cc1Cl [Compound 48] | 60 to 80 |
| CC(=O)Oc1ccccc1C(=O)NC(=O)Nc1cc(Cl)c(O)c(Cl)c1 [Compound 49] | 80 to 100 |
| O=C(NC(=O)c1c(F)cccc1F)Nc1ccccc1S [Compound 50] | 80 to 100 |
| CC(=O)Oc1ccccc1NC(=S)NC(=O)c1ccccc1 [Compound 51] | 60 to 80 |
| CSc1cccc(Cl)c1C(=S)NC(=S)Nc1ccc(Cl)cc1 [Compound 52] | 80 to 100 |
| O=C(NC(=S)Nc1cccc(O)c1)c1ccc(Cl)cc1Cl [Compound 53] | 80 to 100 |
| O=C(NC(=O)c1ccccc1OCc1ccccc1)Nc1ccc(Cl)cc1 [Compound 54, 1-(2-benzyloxybenzoyl)-3-(4-chlorophenyl)urea] | 20 to 40 |
| O=C(NC(=O)c1c(F)cccc1F)Nc1cc(Cl)c(C(=O)c2ccc(Cl)cc2)c(Cl)c1 [Compound 55] | 40 to 60 |
| CC(=O)Oc1ccc(C(=O)NC(=O)Nc2ccc(O)c(C(F)(F)F)c2)cc1Cl [Compound 56] | 40 to 60 |
| O=C(NC(=O)c1c(F)cccc1F)Nc1ccc(OC(=O)Oc2ccc(Cl)cc2)cc1 [Compound 57] | 20 to 40 |
